We go through one compound from publication PMC9205905, “Core and rod structures of a thermophilic cyanobacterial light-harvesting phycobilisome” (Nature Communications, 2022).

The target in assay [1] is T1, CpcB (phycocyanin beta-subunit) (Thermostichus vulcanus, UniProt Q71RW8).
T1 construct: native phycocyanin rod dissociated from intact phycobilisomes; two PC hexamers with linkers CpcC, CpcD, CpcG; with C-phycocyanin alpha subunit
Put plainly: cryo-EM structure, […] Å. Format: binding. The note with it: covalent thioether to Cys84 and Cys155 of CpcB.

In assay [2] the target is T2, CpcA (phycocyanin alpha-subunit) (Thermostichus vulcanus, UniProt Q9AM02).
T2 construct: native phycocyanin rod dissociated from intact phycobilisomes; two PC hexamers with linkers CpcC, CpcD, CpcG; with C-phycocyanin beta subunit
Put plainly: cryo-EM structure, […] Å. Format: binding. The note with it: covalent thioether to Cys84 of CpcA.

`CC=C1C(=Cc2[nH]c(C=C3N=C(C=C4NC(=O)C(CC)=C4C)C(C)=C3CCC(=O)O)c(CCC(=O)O)c2C)NC(=O)[C@@H]1C` [phycocyanobilin]: the “cryo-EM structure, 4.2 Å” value in assay [1] and in assay [2] was “Arrangement of chromophores in the PC rod” in each case.
